The target in test [1] is T1, Adrenergic receptor alpha-1 (Rattus norvegicus, UniProt P15823+P23944+P43140).
T1 sequence (P15823 whole entry): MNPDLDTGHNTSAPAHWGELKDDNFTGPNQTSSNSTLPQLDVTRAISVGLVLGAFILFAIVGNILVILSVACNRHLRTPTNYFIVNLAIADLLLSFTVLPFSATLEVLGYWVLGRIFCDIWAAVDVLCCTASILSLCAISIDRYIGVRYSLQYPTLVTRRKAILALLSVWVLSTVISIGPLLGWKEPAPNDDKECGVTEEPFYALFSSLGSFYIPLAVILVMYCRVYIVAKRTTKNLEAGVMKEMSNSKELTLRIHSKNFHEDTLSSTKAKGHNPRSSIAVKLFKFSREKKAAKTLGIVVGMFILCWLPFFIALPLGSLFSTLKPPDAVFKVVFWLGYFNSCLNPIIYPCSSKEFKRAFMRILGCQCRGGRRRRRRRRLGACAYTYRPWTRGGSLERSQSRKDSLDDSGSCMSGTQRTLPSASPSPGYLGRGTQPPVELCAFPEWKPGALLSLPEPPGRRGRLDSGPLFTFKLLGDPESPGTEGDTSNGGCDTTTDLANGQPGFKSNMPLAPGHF
T1 sequence (P23944 whole entry): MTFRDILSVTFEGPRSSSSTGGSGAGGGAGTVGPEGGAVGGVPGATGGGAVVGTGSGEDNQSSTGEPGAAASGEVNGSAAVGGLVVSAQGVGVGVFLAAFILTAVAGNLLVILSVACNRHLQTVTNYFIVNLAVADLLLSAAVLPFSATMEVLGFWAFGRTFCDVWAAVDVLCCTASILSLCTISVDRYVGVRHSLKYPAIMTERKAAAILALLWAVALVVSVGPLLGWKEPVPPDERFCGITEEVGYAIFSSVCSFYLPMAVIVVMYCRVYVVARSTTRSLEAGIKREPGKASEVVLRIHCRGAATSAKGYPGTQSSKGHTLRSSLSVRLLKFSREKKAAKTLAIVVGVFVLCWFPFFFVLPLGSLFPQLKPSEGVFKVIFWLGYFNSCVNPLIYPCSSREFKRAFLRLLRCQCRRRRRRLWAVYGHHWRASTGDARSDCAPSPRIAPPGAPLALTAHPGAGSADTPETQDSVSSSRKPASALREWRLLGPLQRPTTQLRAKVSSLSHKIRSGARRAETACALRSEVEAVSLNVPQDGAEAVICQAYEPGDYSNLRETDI
T1 sequence (P43140 whole entry): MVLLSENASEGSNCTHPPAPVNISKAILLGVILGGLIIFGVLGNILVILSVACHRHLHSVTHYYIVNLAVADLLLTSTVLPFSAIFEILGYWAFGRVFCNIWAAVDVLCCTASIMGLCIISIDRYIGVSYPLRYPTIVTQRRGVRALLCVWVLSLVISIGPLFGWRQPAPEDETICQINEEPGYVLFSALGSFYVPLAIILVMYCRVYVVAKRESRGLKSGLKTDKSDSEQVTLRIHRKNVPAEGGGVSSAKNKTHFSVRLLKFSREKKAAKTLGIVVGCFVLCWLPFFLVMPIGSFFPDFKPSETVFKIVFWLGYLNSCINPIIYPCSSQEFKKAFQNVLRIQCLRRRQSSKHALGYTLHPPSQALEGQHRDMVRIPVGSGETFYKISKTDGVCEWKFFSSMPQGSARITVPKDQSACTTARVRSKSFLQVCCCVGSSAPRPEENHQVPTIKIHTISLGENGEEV
As to the kind of experiment: Displacement of [3H]prazosin from adrenergic alpha-1 receptor in rat cortical membranes at 1 uM. It counts as cell membranes, Membrane.

The target of test [2] is Sodium-dependent serotonin transporter (Rattus norvegicus, UniProt P31652). Nature of the test: Displacement of [3H]paroxetine from 5HT reuptake site of rat cortical 5HTT.
Chain of Sodium-dependent serotonin transporter (P31652 whole entry): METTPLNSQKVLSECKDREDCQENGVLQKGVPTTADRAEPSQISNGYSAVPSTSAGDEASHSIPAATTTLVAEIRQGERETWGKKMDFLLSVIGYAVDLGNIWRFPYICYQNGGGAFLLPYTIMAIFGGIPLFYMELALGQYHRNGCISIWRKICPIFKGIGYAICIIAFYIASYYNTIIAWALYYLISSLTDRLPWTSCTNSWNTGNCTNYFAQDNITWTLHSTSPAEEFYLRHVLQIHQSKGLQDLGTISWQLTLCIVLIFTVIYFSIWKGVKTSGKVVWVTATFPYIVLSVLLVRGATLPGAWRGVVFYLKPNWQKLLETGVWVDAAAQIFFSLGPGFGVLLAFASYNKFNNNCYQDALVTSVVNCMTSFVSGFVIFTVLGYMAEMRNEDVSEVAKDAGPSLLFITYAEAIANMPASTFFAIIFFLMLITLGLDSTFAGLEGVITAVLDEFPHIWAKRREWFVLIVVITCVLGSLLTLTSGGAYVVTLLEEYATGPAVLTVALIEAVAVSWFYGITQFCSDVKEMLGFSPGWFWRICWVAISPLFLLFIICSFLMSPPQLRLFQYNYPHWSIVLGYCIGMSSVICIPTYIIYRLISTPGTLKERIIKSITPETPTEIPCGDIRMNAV
Test [3] deals with T2, 5-hydroxytryptamine receptor 1A (Homo sapiens) (UniProt P08908).
T2 sequence (whole entry): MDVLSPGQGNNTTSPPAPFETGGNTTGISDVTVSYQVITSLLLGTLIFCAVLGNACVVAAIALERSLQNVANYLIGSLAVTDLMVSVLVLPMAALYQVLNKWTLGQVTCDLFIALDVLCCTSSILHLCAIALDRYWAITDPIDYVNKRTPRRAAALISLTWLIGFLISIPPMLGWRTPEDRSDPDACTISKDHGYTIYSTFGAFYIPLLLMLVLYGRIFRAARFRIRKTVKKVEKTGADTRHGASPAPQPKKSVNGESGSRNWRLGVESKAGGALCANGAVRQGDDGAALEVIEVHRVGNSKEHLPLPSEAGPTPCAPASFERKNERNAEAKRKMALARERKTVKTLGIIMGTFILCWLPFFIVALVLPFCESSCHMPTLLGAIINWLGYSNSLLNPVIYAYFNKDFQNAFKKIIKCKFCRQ
Nature of the test: Agonist activity at human 5HT1A receptor expressed in CHO membrane assessed as stimulation of [35S]GTPgammaS binding relative to 5HT. It counts as functional, cell membranes.

The target in test [4] is T1, Adrenergic receptor alpha-1. Nature of the test: Displacement of [3H]prazosin from adrenergic alpha-1 receptor in rat cortical membranes. Format: cell membranes, Membrane.
Test [5] has as its target T3, 5-hydroxytryptamine receptor 1A (Homo sapiens, UniProt P08908).
T3 sequence (P08908 whole entry): T2 sequence (whole entry)
As to the kind of experiment: Displacement of [3H]8-OH-DPAT from human 5HT1A receptor expressed in CHO cells. Format: cell-based.

Test [6] concerns the target T3, 5-hydroxytryptamine receptor 1A. Nature of the test: Agonist activity at human 5HT1A receptor expressed in CHO membrane assessed as stimulation of [35S]GTP-gamma-S binding. Format: functional, cell membranes.
Test [7] shares this target. As to the kind of experiment: Displacement of [3H]8-OH-DPAT from human 5HT1A receptor expressed in CHO cells at 1 uM. Format: cell-based.

In the case of `CCCN(CCCc1c[nH]c2ccc(F)cc12)C1COc2ccc3ncccc3c2C1` (stereo in doubt; (-)-6) [listing 1 of 2 here], the “% inhibition” value in test [1] was determined as 31%. This compound showed an inhibition constant (Ki) in test [2] of 0.0088 µM.

For `Fc1ccc2[nH]cc(CCCNC3COc4ccc5ncccc5c4C3)c2c1` (stereo in doubt; (+)-5) [listing 1 of 2 here], in test [3], the maximal response (Emax) is 100%.

Turning to `Fc1ccc2[nH]cc(CCCNC3COc4ccc5ncccc5c4C3)c2c1` (stereo in doubt; (+)-5) [listing 2 of 2 here], the Ki in test [4] is 0.5908 µM; in test [5] it was 0.0239 µM.

Regarding `CCCN(CCCc1c[nH]c2ccc(F)cc12)C1COc2ccc3ncccc3c2C1` (single isomer, unassigned; (+)) [listing 1 of 2 here], in test [3], the Emax was found to be 100%.

Take `COc1cccc2c1CC(NCCCc1c[nH]c3ccc(F)cc13)CO2` (racemic): the Ki in test [4] was found to be 0.7725 µM; in test [2] it was 0.0092 µM; in test [5], 0.0704 µM.

Regarding `Fc1ccc2[nH]cc(CCCNC3COc4ccc5ncccc5c4C3)c2c1` (single isomer, unassigned; (-)) [listing 1 of 2 here], the inhibition constant Ki in test [4] came out at 0.221 µM; in test [5] it was 0.314 µM. Moreover, the EC50 in test [6] amounted to 0.116 µM.

Take `Fc1ccc2[nH]cc(CCCCNC3COc4c(ccc5ncccc45)C3)c2c1` (racemic): the results for the “% inhibition” value in test [7] and in test [1] were 47% and 33%, respectively. Further, the affinity in test [2] corresponds to a Ki of 0.0015 µM.

As to `Fc1ccc2[nH]cc(CCCNC3COc4c(ccc5ncccc45)C3)c2c1` (racemic), the inhibition constant Ki was determined as 0.4895 µM in test [4], 0.0026 µM in test [2] and 0.105 µM in test [5].

For the compound `Fc1ccc2[nH]cc(CCCNC3COc4c(ccc5ncccc45)C3)c2c1` (single isomer, unassigned; (+)) [listing 1 of 2 here], the inhibitory constant (Ki) in test [4] was found to be 0.6237 µM; in test [2], 0.003 µM; in test [5], 0.392 µM. Moreover, the concentration for a half-maximal effect (EC50) in test [6] was 0.332 µM.

With `CCCN(CCCCc1c[nH]c2ccc(F)cc12)C1COc2c(ccc3ncccc23)C1` (racemic), the “% inhibition” value was determined as 21% in test [7] and 19% in test [1].

For the compound `Fc1ccc2[nH]cc(CCCNC3COc4ccc5ncccc5c4C3)c2c1` (single isomer, unassigned; (-)) [listing 2 of 2 here], the Emax in test [3] was determined as 86%.

In the case of `Fc1ccc2[nH]cc(CCCNC3COc4ccc5ncccc5c4C3)c2c1` (racemic), the inhibition constant (Ki) in test [4] stood at 0.3242 µM.

Turning to `Fc1ccc2[nH]cc(CCCNC3COc4c(ccc5ncccc45)C3)c2c1` (single isomer, unassigned; (-)) [listing 1 of 2 here], the Emax in test [3] was determined as 100%.

As for `CCCN(CCc1c[nH]c2ccc(F)cc12)C1COc2ccc3ncccc3c2C1` (racemic), the Ki worked out at 0.7112 µM in test [4] and 0.0628 µM in test [2].

As to `Fc1ccc2[nH]cc(CCNC3COc4ccc5ncccc5c4C3)c2c1` (racemic), the Ki in test [4] is 1.0787 µM; in test [2], 0.0305 µM. Moreover, in test [7], the “% inhibition” value worked out at 10%.

Regarding `Fc1ccc2[nH]cc(CCCNC3COc4c(ccc5ncccc45)C3)c2c1` (single isomer, unassigned; (-)) [listing 2 of 2 here], the figures for the inhibitory constant (Ki) in test [4], in test [2] and in test [5] were 0.3877 µM, 0.0012 µM and 0.0678 µM, respectively. Further, in test [6], the concentration giving a half-maximal response (EC50) stood at 0.172 µM.

In the case of `CCCN(CCCc1c[nH]c2ccc(F)cc12)C1COc2ccc3ncccc3c2C1` (stereo in doubt; (-)-6) [listing 2 of 2 here], the Emax in test [3] was 55%.

For `CCCN(CCCc1c[nH]c2ccc(F)cc12)C1COc2c(ccc3ncccc23)C1` (racemic), the Ki is 1.2343 µM in test [4] and 0.0124 µM in test [2]. Further, in test [7], the “% inhibition” value is 46%.

`CCCN(CCCc1c[nH]c2ccc(F)cc12)C1COc2ccc3ncccc3c2C1` (racemic): in test [1], the “% inhibition” value is recorded as 18%. Moreover, the inhibitory constant (Ki) in test [2] is 0.0169 µM; in test [5], 0.0635 µM.

On to `CCCN(CCCc1c[nH]c2ccc(F)cc12)C1COc2ccc3ncccc3c2C1` (single isomer, unassigned; (+)) [listing 2 of 2 here], for which the “% inhibition” value in test [1] is listed as 38%. For the same compound, the Ki in test [2] worked out at 0.0198 µM; in test [5], 0.058 µM. Moreover, the EC50 in test [6] was found to be 0.301 µM.

As for `Fc1ccc2[nH]cc(CCCNC3COc4c(ccc5ncccc45)C3)c2c1` (single isomer, unassigned; (+)) [listing 2 of 2 here], the Emax in test [3] was 75%.
